In patent publication US20100056516A1 (priority 2006, published 2010):
Where two headings read alike, the source gives them in different places.

Tests used:
[1] = target: HIV-1 reverse transcriptase (RNase H) (Human immunodeficiency virus type 1 group M subtype B, UniProt P04585); experiment: ASH assay: RNase H mediated RNA cleavage (ECL format, BioVeris M384); assay type: biochemical
Method: Potency of a substance as an RNase H inhibitors can be determined by measuring its ability prevent RNase H catalyzed cleavage of the RNA strand in a RNA/DNA hybrid duplex substrate. RNase H activity is measured using a substrate generated by annealing the oligoribo-nucleotide 5′-rCrCrUrCrUrCrArArArArArCrArGrGrArGrCrArGrArArArGrArCrArArG (SEQ ID NO:1) to the oligodeoxyribonucleotide 5′-Biotin-[…] (SEQ ID NO:2). […] (SEQ ID NO:3). The resulting double-stranded duplex DNA product is quantitated in an ALPHA screen format using [streptavidin- and anti-fluorescein-coated beads (Packard Bioscience) following the manufacturer's guidelines and reading on a Fusion AlphaScreen instrument. Alternatively, the released 5′-Biotinylated DNA is annealed to a complementary oligodeoxyribonucleotide: 5′-ruthenium-[…] (SEQ ID NO:3). The resulting double-stranded duplex DNA product is quantitated in an ECL screen format using Dynabeads M280 coated with streptavidin (BioVeris Corporation) following the manufacturer's guidelines and reading on a BioVeris M384 Analyzer.

HIV integrase = HIV integrase (Human immunodeficiency virus type 1 group M subtype B, UniProt P04585); experiment: integrase strand transfer assay (STA); assay type: biochemical
HXB2 virus = experiment: microbe, parasite or virus in culture; assay type: cell-based, HIV
How it was run: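 Single-cycle infectivity assay in HeLa P4-2 cells measuring inhibition of acute HIV infection, using HXB2 virus.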

HeLa P4-2 cell line = test system: HeLa P4-2 cell line
Text: The HeLa P4-2 cell line used in the single cycle HIV infectivity Assay B of Example 270 was also used to determine compound cytotoxicity in the absence of viral infection.

[2] = IC50 in the STA assay, integrase strand transfer
[3] = STA (IC50, μM), integrase strand-transfer assay, Example 269
[4] = Human immunodeficiency virus 1, HXB2, HeLaP4-2, read-out: SCIA-B (IC50, μM)
[5] = Human immunodeficiency virus 1, HXB2, HeLaP4-2, read-out: antiviral IC50 (SCIA-B)
[6] = cytotoxicity test B, Alamar Blue, HeLa P4-2 cells, no virus, tested up to 100 micromolar
[7] = RNase H mediated RNA cleavage assay, Example 269, read-out: ASH (IC50)
[8] = integrase strand transfer, read-out: IC50 in the STA assay
[9] = integrase strand-transfer assay, Example 269, read-out: STA (IC50)

SMILES | IC50 [1] [nM] | IC50 (HIV integrase; [2]) [µM] | IC50 (HIV integrase; [3]) [µM] | IC50 (HXB2 virus; [4]) [µM] | IC50 (HXB2 virus; [5]) [µM] | Cytotoxicity (LD50, μM) (HeLa P4-2 cell line; human) [µM] | Cytotoxicity (LD50, μM) (HeLa P4-2 cell line; [6]) [µM] | IC50 [1, 7] [nM] | IC50 (HIV integrase; [8]) [µM] | IC50 (HIV integrase; [9]) [µM]
CCOC(=O)c1c(O)c2c(-c3ccccc3)ccnc2n(O)c1=O [Example 4, Ethyl 1,4-dihydroxy-2-oxo-5-phenyl-1,2-dihydro-1,8-naphthylidine-3-carboxylate] | 260 | < 50 | 0.24 | 0.53 | < 100 | 50 | – | – | – | –
O=C(NC1CCN(Cc2ccccc2)CC1)c1c(O)c2cccnc2n(O)c1=O.O=C(O)C(F)(F)F [Example 21, N-(1-Benzylpiperidin-4-yl)-1,4-dihydroxy-2-oxo-1,2-dihydro-1,8-naphthyridine-3-carboxamide, trifluoro-acetic acid salt] | 180 | < 50 | 0.25 | 0.47 | < 100 | – | >100 | – | – | –
CNC(=O)c1c(O)c2cccnc2n(O)c1=O [Example 24, 1,4-Dihydroxy-N-methyl-2-oxo-1,2-dihydro-1,8-naphthyridine-3-carboxamide] | 180 | < 50 | 0.55 | 0.22 | < 100 | >100 | – | – | – | –
O=c1c(-c2ccccn2)c(O)c2cccnc2n1O [Example 27, 1,4-Dihydroxy-3-pyridin-2-yl-1,8-naphthyridin-2(1B)-one] | 100 | < 50 | 0.06 | 0.5 | < 100 | 6.2 | – | – | – | –
O=c1c(-c2cccc(C(F)(F)F)c2)c(O)c2cccnc2n1O [Example 28, 1,4-Dihydroxy-3-[3-(trifluoromethyl)phenyl]-1,8-naphthyridin-2(1H)-one] | – | – | – | 0.22 | < 100 | >100 | – | 120 | < 50 | 0.26
O=c1c(-c2cccc(Cl)c2)c(O)c2cccnc2n1O [Example 33, 3-(3-Chlorophenyl)-1,4-dihydroxy-1,8-naphthyridin-2(1H)-one] | – | – | – | 0.66 | < 100 | >100 | – | 47 | < 50 | 0.18
COc1cccc(-c2c(O)c3cccnc3n(O)c2=O)c1 [Example 40, 1,4-Dihydroxy-3-(3-methoxyphenyl)-1,8-naphthyridin-2(1H)-one] | – | – | – | 0.67 | < 100 | >100 | – | 110 | < 50 | 0.62
O=c1c(-c2ccccc2)c(O)c2cc(F)cnc2n1O [Example 48, 6-Fluoro-1,4-dihydroxy-3-phenyl-1,8-naphthyridin-2(1H)-one] | – | – | – | 0.14 | < 100 | 31 | – | 200 | < 50 | 0.023
CCOC(=O)c1c(O)c2cc(-c3cccc(CN4CCOCC4)c3)cnc2n(O)c1=O [Example 57, Ethyl 1,4-dihydroxy-6-[3-(morpholin-4-ylmethyl)phenyl]-2-oxo-1,2-dihydro-1,8-naphthyridine-3-carboxylate] | – | – | – | 0.1 | < 100 | 36 | – | 520 | < 50 | 0.069
CCOC(=O)c1c(O)c2cc(-c3cccc(O)c3)cnc2n(O)c1=O [Example 59, Ethyl 1,4-dihydroxy-6-(3-hydroxyphenyl)-2-oxo-1,2-dihydro-1,8-naphthyridine-3-carboxylate] | – | – | – | 0.05 | < 100 | 20 | – | 150 | < 50 | 0.022
O=c1c(Cc2ccccc2)c(O)c2cc(Cc3ccccc3)cnc2n1O [Example 66, 3,6-Dibenzyl-l,4-dihydroxy-1,8-naphthyridin-2(1H)-one] | – | – | – | 0.38 | < 100 | 34 | – | 490 | < 50 | 0.02
CCOC(=O)c1c(O)c2cc(C(=O)N(C)CCc3ccccc3)cnc2n(O)c1=O [Example 81, Ethyl 1,4-dihydroxy-6-{[methyl(2-phenylethyl)amino]carbonyl}-2-oxo-1,2-dihydro-1,8-naphthyridine-3-carboxylate] | – | – | – | 0.06 | < 100 | >100 | – | 270 | < 50 | 0.027
O=c1cc(Nc2ccc(-c3ccccc3)cc2)c2cccnc2n1O [Example 106, 4-(Biphenyl-4-ylamino)-1-hydroxy-1,8-naphthyridin-2(1H)-one] | 88 | < 50 | 0.22 | 0.43 | < 100 | 12 | – | – | – | –
O=c1cc(NCc2ccc(CN3CCOCC3)cc2)c2cccnc2n1O [Example 111, 1-Hydroxy-4-{[4-(morpholin-4-ylmethyl)benzyl]amino}-1,8-naphthyridin-2(1H)-one] | 46 | < 50 | 1.8 | 0.12 | < 100 | >100 | – | – | – | –
O=c1cc(NCc2cccc(N3CCOCC3)n2)c2cccnc2n1O [Example 115, 1-hydroxy-4-{[(6-morpholin-4-ylpyridin-2-yl)methyl]amino}-1,8-naphthyridin-2(1H)-one] | 180 | < 50 | 1.9 | 0.11 | < 100 | 8.6 | – | – | – | –
COC(=O)c1ccc2c(c1)CCN(c1cc(=O)n(O)c3ncccc13)C2 [Example 121, 4-[6-(methoxycarbonyl)-3,4-dihydroisoquinolin-2(1H)-yl]-1-hydroxy-1,8-naphthyridin-2(1H)-one] | 150 | < 50 | 0.6 | 0.26 | < 100 | 16 | – | – | – | –
O=c1cc(N2CCc3ncccc3C2)c2cccnc2n1O [Example 123, 4-(7,8-dihydro-1,6-naphthyridin-6(5H)-yl)-1-hydroxy-1,8-naphthyridin-2(1H)-one] | – | – | – | 0.42 | < 100 | – | 8.7 | 110 | < 50 | 2.4
C[C@H](Nc1cc(=O)n(O)c2ncccc12)c1ccccc1 [Example 124, 1-hydroxy-4-{[(1S)-1-phenylethyl]amino}-1,8-naphthyridin-2(1H)-one] | 230 | < 50 | 0.66 | 0.16 | < 100 | 50 | – | – | – | –
O=c1cc(NC2CCc3ccccc32)c2cccnc2n1O (stereo not drawn) [Example 134, 4-(2,3-dihydro-1H-inden-1-ylamino)-1-hydroxy-1,8-naphthyridin-2(1H)-one] | 91 | < 50 | 0.36 | 0.034 | < 100 | 23 | – | – | – | –
O=c1cc(NC2CCCc3ccccc32)c2cccnc2n1O (stereo not drawn) [Example 135, 1-hydroxy-4-(1,2,3,4-tetrahydronaphthalen-1-ylamino)-1,8-naphthyridin-2(1H)-one] | 61 | < 50 | 0.19 | 0.5 | < 100 | >100 | – | – | – | –
COc1ccc(CNc2cc(=O)n(O)c3ncccc23)cc1 [Example 140, 1-hydroxy-4-[(4-methoxybenzyl)amino]-1,8-naphthyridin-2(1H-one)] | 110 | < 50 | 0.22 | 0.09 | < 100 | 5 | – | – | – | –
COc1ccccc1CNc1cc(=O)n(O)c2ncccc12 [Example 142, 1-hydroxy-4-[(2-methoxybenzyl)amino]-1,8-naphthyridin-2(1H-one)] | 84 | < 50 | 0.56 | 0.09 | < 100 | 4.4 | – | – | – | –
O=c1cc(Nc2ccccc2N2CCOCC2)c2cccnc2n1O [Example 147, 1-hydroxy-4-{[2-(4-morpholinyl)phenyl]amino}-1,8-naphthyridin-2(1H-one)] | 17 | < 50 | 0.22 | 0.2 | < 100 | 7.7 | – | – | – | –
O=c1cc(NCc2ccccn2)c2cccnc2n1O [Example 149, 1-hydroxy-4-[(2-pyridinylmethyl)amino]-1,8-naphthyridin-2(1H-one)] | 140 | < 50 | 0.7 | 0.06 | < 100 | 5.2 | – | – | – | –
